Laboratory results reported in patent publication US20150250765A1, “NITAZOXANIDE AND MEBENDAZOLE SYNERGIC COMPOSITION, PROCESSES FOR THE PREPARATION THEREOF, AND USE OF SAID COMPOSITION FOR THE TREATMENT OF HUMAN PARASITOSIS” (priority 2012, published 2015).

Tests used:
[1] = test system: L4 (larva or adult worm) of different kinds of helminths (eg. trichuris spp); experiment: inhibition of larval migration test; type: cell-based; details: 100 μg/ml (combination: 50 μg/ml NTZX and 50 μg/ml MBDZ), 16 hours at 37° C., then 18 hours migration
From the text: 1) In order to determine the in vitro anthelmintic effectiveness of the pharmaceutical combination of NTZX and MBDZ the “inhibition of larval migration test” was used, which was developed by […] et al. (1992) and modified by Rable et al. (1994) and Paolini et al. 2004). […] The rats of the Sprague-Dawley vivarium strain, parasites naive, were infected with different kinds of […]. Trichuria trichuris infected eggs). Approximately 3 g of feces were placed in culture bottles. The feces were cultured to produce worms or larvae (L4 stage) at a temperature of 37° C. for 72 hours. In order to determine the in vitro anthelmintic effectiveness the larval migration inhibition test was used. […] The tubes were incubated at 37° C. for 16 hours. The total content of these tubes, 0.5 ml, was transferred to the filters located within the acrylic tubes and grown at room temperature for 18 hours to allow the larvae to migrate through the filters within the chamber. Then, the filters were removed from the chambers and the total number of larvae in the filters and in chambers was counted. The larval migration inhibition (LMI) was determined using the following formula: [formula] Wherein A=larvae migrated ratio in the control and B=larvae migrated ratio in the treatments.

[2] = test system: Giardia intestinalis trophozoites; experiment: in vitro antiprotozoal effectiveness in intestinal Giardia culture (morphology, adhesion, viability of trophozoites); details: for Mobility Ranking / Ranking of trophozoites adhesion: 2 μg/ml (combination 1 + 1 μg/ml)
Method: 1) The in vitro antiprotozoal effectiveness of the pharmaceutical combination of NTZX with […] was determined in an intestinal Giardia culture as compared with the NTZX and MBDZ active ingredients separately. In this study the morphology, the adhesion and the viability of the Giardias trophozoites was assessed in in vitro cultures.
The antiparasitic agents used were NTZX at a 2 μg/ml concentration; MBDZ at a 2 μg/ml concentration and a pharmaceutical combination of 1 μg/ml NTZX and 1 μg/ml MBDZ. The trophozoites were obtained from the intestines of rats (Sprague-Dawley vivarium strain) previously infected with Giardia intestinalis.
The trophozoites were isolated in a BI-S33 culture media containing 10% bovine serum without added antibiotic. From this media, 4.5 ml were extracted, which were separated in 8 glass tubes with screw caps. […] 4 of the tubes were exposed to the drugs for 4 hours and the other 4 tubes were exposed to the drugs for 24 hours. After the established periods of time were over (4 to 24 hours) the tubes underwent centrifugation (5 minutes at 500 rpm), where the supernatant was extracted and removed. The decanted material was then dyed with a 0.1% eosin solution to assess the viability of trophozoites: • a. The adhesion and growth uniformity of trophozoites was assessed, using an optical microscope in 5-10 fields (×100 and ×200). For this, a table was drafted describing the following:
• b. The trophozoites viability rate was assessed, by using a Neubauer camera to the optical microscope. The percentage of non-viable trophozoites was estimated as compared with the total state of trophozoites (live and immobile). • c. The mobility and morphology of the trophozoites was assessed. Mobility is divided into:
The normal morphology of trophozoites under the optical microscope is characterized by the following: unicellular organism, with pyriform morphology, bilateral symmetry, flagellated, bi-nucleated (vacuolar complex) on its dorsal face. Any change in morphology was correspondingly detailed.

L4 helminth larvae = experiment: scale of larval motility; type: cell-based, trichuris spp; parameters: key: 0=death; 1=very low motility; 2=low motility; 3=normal motility; details: L4 helminth larvae in culture with drug; scale 0 to 3 points
Method: The rats of the Sprague-Dawley vivarium strain, parasites naive, were infected with different kinds of […]. Trichuria trichuris infected eggs). Approximately 3 g of feces were placed in culture bottles. The feces were cultured to produce worms or larvae (L4 stage) at a temperature of 37° C. for 72 hours. In order to determine the in vitro anthelmintic effectiveness the larval migration inhibition test was used. […] The tubes were incubated at 37° C. for 16 hours. The total content of these tubes, 0.5 ml, was transferred to the filters located within the acrylic tubes and grown at room temperature for 18 hours to allow the larvae to migrate through the filters within the chamber. Then, the filters were removed from the chambers and the total number of larvae in the filters and in chambers was counted. 2) Another method for the larval motility assessment was using the “scale of larval motility” in the various tubes with the different drugs and the control group. The scale of motility is a scale from 0 to 3 points, wherein 0=death; 1=very low motility; 2=low motility and 3=normal motility.

[3] = 24 hours of exposure, optical microscope

Row | SMILES | parasites migration [1] [%] | inhibition at 100 µg/mL ([1]; Trichuris, read-out: larval migration inhibition (LMI)) [%] | Mobility Ranking ([2]; 4 hours of drug exposure) | Ranking of trophozoites adhesion ([2]; 4 hours of drug exposure) | Mobility Ranking ([2]; 24 hours of drug exposure) | Ranking of trophozoites adhesion ([2]; 24 hours of drug exposure) | microscopic morphological changes of trophozoites [2, 3] | Motility scale (L4 helminth larvae) | larval migration inhibition (LMI) [1] [%] | adhered trophozoites (in words) [2, 3] | mobility of trophozoites (in words) [2, 3]
1 | COC(=O)Nc1nc2ccc(C(=O)c3ccccc3)cc2[nH]1 [MBDZ, Mebendazole] | 30 | 70 | 2 | 4 (25-50) | 1 | 5 (50-100) | some trophozoites were globular, some folded, some of distorted forms (partial loss of bilateral symmetry) | 1 | – | – | –
2 | CC(=O)Oc1ccccc1C(=O)Nc1ncc([N+](=O)[O-])s1 [NTZX, Nitazoxanide] | 40 | – | 2 | 5 (50-100) | 1 | 7 (250-500) | globular trophozoites (very enlarged), a moderate amount of folded trophozoites and partial loss of dorsal vacuolar complex | 2 | 60 | The amount of adhered trophozoites was moderate | A low number of motile trophozoites (mostly in situ) and erratic movements
